Starred links: 1 amine or outer side, 2 acyl side, 3 side chain; linkers in the order of their positions; H or OH if unused. Residues, ends and D or L forms follow the SMILES beside them. *: point of attachment. X1 = CC(C)(C)c1cc(C(=O)*)cc(C(C)(C)C)c1O; Suc = O=C(CCC(=O)[*:2])[*:1]
What was measured:
[1] = tested on: soy phosphatidyl-choline (PC); test: Antioxidant activity: inhibition of Fe-initiated lipid peroxidation (TBARs); assay type: biochemical
Protocol: Antioxidant Activity. Peptides were dissolved in trifluoroethanol (TFE) and mixed with soy phosphatidyl-choline (PC) in chloroform. After drying under a N2 stream, the mixture was resuspended in ethanol and injected into buffer (50 mM NaCl, 50 mM Tris-HCl, pH 7.0) to obtain a final concentration of 0.5 mM phospholipid. Peroxidation was initiated with 50 μM Fe^2+ plus a mixture of 50 μM Fe^3+ and 250 μM histidine. At intervals over a period of 15 min at 37° C., 1 mL samples of the reaction mixture were taken for determination of TBARs (thiobarbituric acid reactive substances). Two mL of a mixture of 2 parts of 0.67% thiobarbituric acid/0.05N NaOH and 1 part of 10% trichloroacetic acid and 0.05 mL of 2% butylated hydroxytoluene were added. Reaction proceeded for 30 min at 100° C. The tubes were then cooled, centrifuged for 15 min at 3000 rpm and transferred to acrylic cuvettes. The differences in absorbance at 532 nm and 700 nm (to correct for light scattering) were measured and the TBARs were calculated in units of malondialdehyde equivalents using a molar extinction coefficient of 1.56×10^5 M^-1 cm^-1.

[2] = CD spectra: conformation of peptides in water and TFE; assay type: physicochemical; settings: fits ±3% (SEM of fit)
Protocol: CD Spectra. Circular dichroic (CD) spectra of samples in 1 mm circular cuvettes were recorded at room temperature on a Jasco J-500A Spectropolarimeter with 2 nm slit width. The CD spectrum of buffer was subtracted from the CD spectrum of the sample after each scan. The scan rate is 2 nm/min and the time constant was 8 sec. Data was collected at 0.04 nm intervals and averaged over a 0.2 nm interval.

[3] = tested on: surfactant-deficient lavaged adult rat lungs; test: Isolated rat lavaged lung model (pressure-volume deflation curves); assay type: in vivo; settings: for effect on the pressure-volume (P-V) curve of the lavaged lung: statement in words
Text: Methods of testing the synthetic surfactant preparations for efficacy are well known in the art. For example, the synthetic surfactant preparations of the present invention can be tested in any appropriate manner such as in the adult rat lung model (Ikegami, et al., (1979) Pediatr. Res. 13, 777-780).
Pressure-volume characteristics of surfactant-depleted rat lungs are similar to those of lungs of infants with hyaline membrane disease and restoration of the pressure-volume relationship of the lung to normal is related to the amount of surfactant instilled in a dose dependent manner. (Bermel, M. S., et al., Lavaged excised rat lungs as a model of surfactant deficiency, Lung 162:99-113 (1984)).
Isolated Rat Lavaged Lung Model. The experimental procedures for animal preparation, pressure-volume curve registration and lung lavage were adapted from those described by Ikegami et al., Pediatr. Res. 11:178-182 (1977) and Pediatr. Res. 13:777-780 (1979, and Bermel et al, Lung 162:99-113 (1984). Male Sprague Dawley rats (200-250 g) were anesthetized with sodium pentobarbital and exsanguinated. The trachea was cannulated and the thoracic organs were removed en bloc. After removal of the adventitious tissue, the trachea and lungs (~2 g) were suspended in saline (0.9%), placed in a vacuum chamber, and degassed according to the procedure of Stengel et al. the degassed lungs were suspended in saline in a 37° C., jacketed reservoir and the tracheal cannula was connected both to a water manometer and a glass syringe by a T-tube. The glass syringe was placed in an infusion/withdrawal pump. Lungs were rapidly inflated with air to 30 cm H2 O pressure at the rate of 10 ml/min to minimize air trapping, and were maintained at this pressure for 10 min by intermittently adding air to the lungs. The total volume of air infused was recorded as the total lung capacity (TLC) which was generally 14-15 ml. The lungs were then deflated at a rate of 2.5 ml/min until zero pressure was attained. During deflation, pressure was read from the water manometer at 1 cm intervals and recorded. […] After degassing and equilibration, the lungs were rendered surfactant-deficient by repeated lavage with 5 ml/g lavage buffer (0.9% NaCl, 10 mM HEPES, pH 7.4). The procedures of degassing, equilibrating, and lavaging were repeated (15-20 times) until the pressure-volume curve had become distinctly sigmoidal in shape and the volume of air remaining in the lungs at 5 cm H2 O pressure was less than or equal to 3 ml. At this point, the lungs were considered surfactant-deficient. For testing, 2 ml of 0.9% NaCl, 10 mM HEPES buffer, pH 7.4, were added to the dry lung surfactants (25 mg of phospholipid; 100-125 mg/kg) and the mixture was vortexed, flushed with nitrogen and incubated for 1 h at 45° C. The mixture was then vortexed again, degassed if foamy, and 2 ml of the test mixture were introduced into and withdrawn from the lungs four times by syringe. When the test mixture was reintroduced to the lungs for the fifth time, it was allowed to remain in the lungs. This procedure was adopted to encourage even distribution of the material throughout the lung. The lungs were degassed, allowed to equilibrate at 37° C. for 5 min, and a P-V measurement was performed. […] The deflation limbs of the pressure-volume (P-V) curves in adult rat lungs were analyzed by calculating the total lung capacities (%TLC) at 5 and 10 cm H2 O pressure (PC5 and PC10).

[4] = Surface tension of an oscillating bubble in a pulsating bubble surfactometer; assay type: physicochemical; settings: after 10 min of pulsing, 37° C.
Protocol: Surface Tension Measurements. The minimum and maximum surface tension of an oscillating bubble were measured on samples at 37° C. with a cycle rate of 20 per min in a pulsating bubble surfactometer (PBS, Electronetics Corp.), essentially as described by Enhorning, J. Appl. Physiol 43:198-203 (1977). The plastic cample chamber was rinsed with a dilute solution of dishwashing detergent, thoroughly rinsed with water and dried under a stream of N2 prior to use.

[5] = water, fit to standard spectra of Greenfield & Fasman

| Structure (SMILES) | antioxidant activity (inhibition of lipid peroxidation) ([1]; in soy PC mixtures, 50 μM Fe2+ plus 50 μM Fe3+/250 μM histidine, 37° C., 15 min) | Conformation based on CD spectra: α ([2]; TFE, first TFE column) | Conformation based on CD spectra: α (second TFE column) ([2]; TFE, second TFE column) | Conformation based on CD spectra: α [2, 5] | Conformation based on CD spectra: β [2, 5] | time for which oxidation is totally inhibited ([1]; 0.6% (by weight), added to WMAP10 in soy PC mixtures, data not shown) | effect on the pressure-volume (P-V) curve of the lavaged lung [3] | γmin (minimum surface tension) ([4]; mixture with DPPC, 20 cycles per min) | PC5 (% TLC at 5 cm H2O) ([3]; no dose given, mean ± SEM, n=4) | PC10 (% TLC at 10 cm H2O) ([3]; no dose given, mean ± SEM, n=4) | restoration (based on PC5) ([3]; no dose given, relative to sufficient and deficient measurements on the same lungs, mean ± SEM) | γmin (minimum surface tension) ([4]; unsonicated liposomes) |
| --- | --- | --- | --- | --- | --- | --- | --- | --- | --- | --- | --- | --- |
| CC(C)C[C@H](NC(=O)CCC(=O)O)C(=O)N[C@@H](CC(C)C)C(=O)N[C@@H](CCC(=O)O)C(=O)N[C@@H](CCCCN)C(=O)N[C@@H](CC(C)C)C(=O)N[C@@H](CC(C)C)C(=O)N[C@@H](CCC(=O)O)C(=O)N[C@@H](CCCCNC(=O)c1cc(C(C)(C)C)c(O)c(C(C)(C)C)c1)C(=O)N[C@@H](CC(C)C)C(=O)N[C@@H](CCCCN)C(N)=O [HBB-LysMAP10, Suc-Leu-Leu-Glu-Lys-Leu-Leu-Glu-Ne-HBB-Lys-Leu-Lys-NH2] (Suc-LLEKLLEK(X1)LK-NH2) | effective antioxidants | 78 | 0 | 59 | 4 | – | – | – | – | – | – | – |
| CC(C)(Sc1cc(C(C)(C)C)c(O)c(C(C)(C)C)c1)Sc1cc(C(C)(C)C)c(O)c(C(C)(C)C)c1 [Probucol] | – | – | – | – | – | at least 8 min | does not diminish the activity | slightly increased | – | – | – | – |
| CCCCCCCCCCCCCCCC(=O)OC[C@H](COP(=O)([O-])OCC[N+](C)(C)C)OC(=O)CCCCCCCCCCCCCCC [DPPC, dipalmitoylphosphatidylcholine] | – | – | – | – | – | – | no significant effect | – | 13 ± 1 % TLC | 31 ± 2 % TLC | -11 ± 8% | 38 mN/m |

Reference: US5683982A, “Synthetic lung surfactant having antioxidant properties” (Merrell Pharmaceuticals Inc., priority 1995, dated 1997)
